Reference: patent US8940784B2, “Water-soluble CC-1065 analogs and their conjugates” (priority 2006, dated 2015)
Structures can show the parent of a compound that is named as a salt.

Tests used:
[1] = test system: human lung carcinoma cell line A549; experiment: In vitro cytotoxicity, clone forming assay in A549 cells; type: cell-based; details: A549, 24 h exposure, 12 days cultivation
Experimental: In vitro cytotoxicity of compounds (+)-8a-e and (+)-4a-e: Adherent cells of line A549 were sown in triplicate in 6 multiwell plates at concentrations of 10^2, 10^3, 10^4, and 10^5 cells per cavity. Culture medium was removed after 24 h and cells were washed hi the incubation medium Ultraculture (UC, serum-free special medium, purchased from BioWhittaker Europe, Verviers, Belgium). Incubation with compounds (+)-8a-e and (+)-4a-e was then performed in Ultraculture medium at various concentrations for 24 h. All substances were used as freshly prepared solutions in DMSO (Merck, Darmstadt, Germany) diluted with incubation medium to a final concentration of 1% DMSO in the wells. After 24 h of exposure the test substance was removed and the cells were washed with fresh medium. Cultivation was done at 37° C. and 7.5% CO2 in air for 12 days. The medium was removed and the clones were dried and stained with Löffler's methylene blue (Merck, Darmstadt, Germany). They were then counted macroscopically.
The IC50 values are based on the relative clone forming rate, which was determined according to the following formula: relative clone forming rate [%]=100×(number of clones counted after exposure)/(number of clones counted in the control).
Liberation of the drugs from their glycosidic prodrugs was achieved by addition of 4.0 U·mL^−1 β-D-galactosidase (EC 3.2.1.23, Grade X, purchased from Sigma Germany, Deisenhofen, Germany) to the cells during incubation with the substances.

[2] = test system: MDA-MB-231 cells (estrogen-independent human breast cancer cell line); experiment: ADEPT in vivo experiment, orthotopic breast tumor SCID mouse model
Experimental: Compound (+)-8a was evaluated in an orthotopic breast tumor SCID mouse model using the ADEPT concept. Female SCID mice were inoculated with 1×10^6 MDA-MB-231 cells (estrogen-independent human breast cancer cell line) suspended in 25 μl sterile PBS in the mammary fad pat of the 4th mammary complex. Tumors were allowed to grow and ADEPT therapy was started after tumor volumes reached a detectable size. Mice were treated according to the treatment schedule in FIG. 17 and received two treatment cycles of a monoclonal anti-human urokinase plasminogen activator receptor (uPAR) antibody conjugated with β-Galactosidase, uPAR*β-Gal, in PBS followed by three injections with conjugate (+)-8a in 1% DMSO/NaCl solution. Control groups received either antibody-enzyme and 1% DMSO/NaCl solution (antibody-enzyme only group), PBS and conjugate (conjugate only group), or PBS and 1% DMSO/NaCl solution (control group).
In vivo evaluation of compound (+)-8a in an orthotopic breast tumor SCID mouse model using the ADEPT concept: Before tumor cell implantation, female SCID mice were anesthetized by peritoneal injection of 75 mg/kg ketamine hydrochloride with 15 mg/kg xylazine. 1×10^6 MDA-MB-231 cells (estrogen-independent human breast cancer cell line) suspended in 25 μl sterile phosphate-buffered saline (PBS) were then implanted into the mammary fad pat of the 4th mammary complex. After implantation, mice were inspected daily for body weight loss, general condition, and tumor formation. On day 21, animals were randomized in groups of 5-12 mice (control, antibody-enzyme only, prodrug only, and ADEPT therapy). On days 22 and 30, mice were injected intravenously with PBS (control, prodrug only groups) or 50 μg of a monoclonal anti-human urokinase plasminogen activator receptor (uPAR) antibody conjugated with β-Galactosidase, uPAR*β-Gal, in PBS (antibody-enzyme only, ADEPT therapy groups). On days 24, 26, 28, 32, 34, and 36, mice were injected intravenously with 1% DMSO/NaCl solution (control, antibody-enzyme only groups) or 104 μg of (+)-8a in 1% DMSO/NaCl solution (prodrug only, ADEPT therapy groups). Mice were sacrificed on day 38 and tumors were excised, weighed, placed in phosphate-buffered 4% formalin for 16 hours at room temperature, and embedded in paraffin. Tissue sections (2.5 μm) were obtained, stained with hematoxylin and eosin (H & E), and inspected by routine microscopic examinations. For immunohistochemistry, 2.5 μm sections from formalin-fixed and paraffin-embedded tissues, were mounted on slides, deparaffinized in xylene and rehydrated in ethanol/water dilutions. Slides for Ki67 staining were pretreated by boiling in a microwave oven (5×5 min) in citrate buffer (pH 6.0) for antigen retrieval. Endogenous peroxidases were inactivated by treatment with 3% hydrogen peroxide for 10 min. Tris-buffered 10% rabbit serum solution (Dako, Hamburg, Germany, No. X 0902) was then added to block nonspecific protein binding and slides were incubated with murine anti-human Ki67 (Dianova, Hamburg, Germany, No. dia 505) for 60 min (2 μg/ml) followed by exposure to biotinylated rabbit anti-mouse F(ab′)2-fragment (Dako, No. E 0413, 16.8 μg/ml) for 30 min. Sections were then incubated with avidin-peroxidase solution (Dako, No. P 364), stained with aminoethylcarbazole (AEC substrate solution, Sigma), rinsed in water, and finally counterstained with hematoxylin.

[3] = with addition of 4.0 U/mL β-D-galactosidase
[4] = without addition of β-D-galactosidase

C[C@@H](Cl)[C@@H]1CN(C(=O)c2cc3cc(OCCN(C)C)ccc3[nH]2)c2cc(O[C@@H]3O[C@H](CO)[C@H](O)[C@H](O)[C@H]3O)c3ccccc3c21 [(1S,10R)-8a and (1R,10S)-8a′, [(1,10)-anti-1-(10-Chloroethyl)-3-[(5-(2-(N,N-dimethylamino)ethoxy)-indol-2-yl)carbonyl]-1,2-dihydro-3H-benz[e]indol-5-yl]-β-D-galactopyranoside]
IC50 [1, 3]: 1.2 nM
IC50 [1, 4]: 7900 nM

CC(Cl)C1CN(C(=O)c2cc3cc(OCCN4CCOCC4)ccc3[nH]2)c2cc(O[C@@H]3O[C@H](CO)[C@H](O)[C@H](O)[C@H]3O)c3ccccc3c21 (single isomer, unassigned; (+)) [(+)-8b, [(+)-(1,10)-anti-1-(10-Chloroethyl)-3-[(5-(2-(morpholin-4-yl)ethoxy)-indol-2-yl)carbonyl]-1,2-dihydro-3H-benz[e]indol-5-yl]-β-D-galactopyranoside]
IC50 [1, 3]: 2.5 nM
IC50 [1, 4]: 1500 nM

CC(Cl)C1CN(C(=O)c2cc3cc(OCCN4CCOCC4)ccc3[nH]2)c2cc(O)c3ccccc3c21 (single isomer, unassigned; (+)) [(+)-4b, (+)-{(1,10)-anti-1-(10-Chloroethyl)-5-hydroxy-3-[(5-(2-(morpholin-4-yl)ethoxy)indol-2-yl)carbonyl]-1,2-dihydro-3H-benz[e]indole-hydrochloride}]
IC50 [1, 4]: 3.7 nM

COc1cc2[nH]c(C(=O)N3CC(C(C)Cl)c4c3cc(O)c3ccccc43)cc2cc1OCCN(C)C (single isomer, unassigned; (+)) [(+)-4c, (+)-{(1,10)-anti-1-(10-Chloroethyl)-5-hydroxy-3-[(5-(2-(N,N-dimethylamino)ethoxy)-6-methoxy-indol-2-yl)carbonyl]-1,2-dihydro-3H-benz[e]indole-hydrochloride}]
IC50 [1, 4]: 0.2 nM

CC(Cl)C1CN(C(=O)c2cc3cc(NC(=O)CN(C)C)ccc3[nH]2)c2cc(O)c3ccccc3c21 (single isomer, unassigned; (+)) [(+)-4e]
IC50 [1, 4]: 3.8 nM

COc1cc2[nH]c(C(=O)N3C[C@@H]([C@@H](C)Cl)c4c3cc(O[C@@H]3O[C@H](CO)[C@H](O)[C@H](O)[C@H]3O)c3ccccc43)cc2cc1OCCN(C)C [(+)-8c, [(+)-(1S,10R)-1-(10-Chloroethyl)-3-[(5-(2-(N,N-dimethylamino)ethoxy)-6-methoxy-indol-2-yl)carbonyl]-1,2-dihydro-3H-benz[e]indol-5-yl]-β-D-galactopyranoside]
IC50 [1, 3]: 0.22 nM
IC50 [1, 4]: 940 nM

CC(Cl)C1CN(C(=O)c2cc3cc(OCC4CCN(C)CC4)ccc3[nH]2)c2cc(O)c3ccccc3c21 (single isomer, unassigned; (+)) [(+)-4d, (+)-{(1,10)-anti-1-(10-Chloroethyl)-5-hydroxy-3-[(5-((1-methylpiperidin-4-yl)methoxy)indol-2-yl)carbonyl]-1,2-dihydro-3H-benz[e]indole-hydrochloride}]
IC50 [1, 4]: 0.8 nM

C[C@@H](Cl)[C@@H]1CN(C(=O)c2cc3cc(OCCN(C)C)ccc3[nH]2)c2cc(O[C@@H]3O[C@H](CO)[C@H](O)[C@H](O)[C@H]3O)c3ccccc3c21 [(+)-8a, [(1,10)-anti-1-(10-Chloroethyl)-3-[(5-(2-(N,N-dimethylamino)ethoxy)-indol-2-yl)carbonyl]-1,2-dihydro-3H-benz[e]indol-5-yl]-β-D-galactopyranoside]
average primary tumor volume ([2]; ADEPT therapy (uPAR*β-Gal followed by (+)-8a i.v.), after one treatment cycle): 0.23±0.07 cm^3
mean tumor volume ([2]; ADEPT therapy (uPAR*β-Gal followed by (+)-8a i.v.), after two treatment cycles): 0.33±0.13 cm^3
necrotic tissue within tumors ([2]; ADEPT therapy versus vehicle-treated mice): more necrotic tissue within tumors
tolerability ([2]; ADEPT therapy, all animals): well tolerated
blood parameters ([2]; treated mice compared to controls): not altered
inhibitory effect on tumor growth with respect to vehicle control ([2]; treatment with the substance alone (antibody-enzyme only or conjugate only group)): no inhibitory effect
IC50 ([1]; with addition of 4.0 U/mL β-D-galactosidase, listed as (1S,10R)-8a): 0.75 nM
IC50 ([1]; without addition of β-D-galactosidase, listed as (1S,10R)-8a): 3600 nM

CC(Cl)C1CN(C(=O)c2cc3cc(OCC4CCN(C)CC4)ccc3[nH]2)c2cc(O[C@@H]3O[C@H](CO)[C@H](O)[C@H](O)[C@H]3O)c3ccccc3c21 (single isomer, unassigned; (+)) [(+)-8d, [(+)-(1,10)-anti-1-(10-Chloroethyl)-3-[(5-((1-methylpiperidin-4-yl)methoxy)-indol-2-yl)carbonyl]-1,2-dihydro-3H-benz[e]indol-5-yl]-β-D-galactopyranoside]
IC50 [1, 3]: 0.75 nM
IC50 [1, 4]: 830 nM

CC(Cl)C1CN(C(=O)c2cc3cc(OCCN(C)C)ccc3[nH]2)c2cc(O)c3ccccc3c21 (single isomer, unassigned; (+)) [(+)-4a, (1,10)-anti-1-(10-Chloroethyl)-5-hydroxy-3-[(5-(2-(N,N-dimethylamino)ethoxy)indol-2-yl)carbonyl]-1,2-dihydro-3H-benz[e]indole-hydrochloride]
IC50 [1, 4]: 0.75 nM

C[C@@H](Cl)[C@@H]1CN(C(=O)c2cc3cc(NC(=O)CN(C)C)ccc3[nH]2)c2cc(O[C@@H]3O[C@H](CO)[C@H](O)[C@H](O)[C@H]3O)c3ccccc3c21 [(+)-8e]
IC50 [1, 3]: 5.9 nM
IC50 [1, 4]: 7700 nM
